Experimental data from paper PMC10573954, “Crystal Structure of DNA Replication Protein SsbA Complexed with the Anticancer Drug 5-Fluorouracil” (International Journal of Molecular Sciences, 2023).

Experiments:
[1] = target: T1, SsbA (SaSsbA), single-stranded DNA-binding protein (Staphylococcus aureus, UniProt A0A0D1JHQ1, R18A); experiment: intrinsic fluorescence quenching titration
T1 construct: gene ssb; recombinant His-tagged SaSsbA R18A (pET21b)
T1 sequence (A0A0D1JHQ1 1-167 R18A): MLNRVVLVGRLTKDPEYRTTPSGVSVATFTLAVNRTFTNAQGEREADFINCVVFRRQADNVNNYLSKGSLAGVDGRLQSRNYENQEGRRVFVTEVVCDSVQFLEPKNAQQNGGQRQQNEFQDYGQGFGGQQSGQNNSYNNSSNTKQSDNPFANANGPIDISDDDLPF

[2] = target: T2, SsbA (SaSsbA), single-stranded DNA-binding protein (Staphylococcus aureus, UniProt A0A0D1JHQ1); experiment: crystal structure ([…] Å) and intrinsic fluorescence quenching titration
T2 construct: gene ssb; recombinant His-tagged SaSsbA (167 aa, pET21b); aa 105–167 not observed in the crystal structure

O=c1[nH]cc(F)c(=O)[nH]1 [5-FU, 5-fluorouracil]
Kd [1]: 498 ± 13.5 µM
Kd [2]: 55.9 ± 0.7 µM
